Experiment [1] deals with Phorbol Myristate Stimulated Murine Peritoneal Macrophages. The following applies: cited from earlier work.
The conditions of experiment [2]: Neta et al. J. Phys. Chem. 1980; cited from earlier work.
A short description of experiment [3]: Pulse radiolysis: decay of carbonate radical CO3.-, absorbance at 600 nm. Format: biochemical. The following applies: 0.6 M carbonate. How it is done: Methods. Pulse radiolysis experiments were carried out using a 5-MeV Varian 7715 linear accelerator (0.05-1.5 μs electron pulses, 200 mA current). All measurements were performed at room temperature in a 2-cm spectrosil cell, with three light passes (optical path length 6.1 cm). The formation and decay kinetics of the CO3− radical were tracked by measuring its absorption at 600 nm using ε600=1860 M^−1cm^−1.
Carbonate radical was generated by irradiating N2O-saturated (˜25 mM) aqueous solutions containing 0.1-0.6 M sodium carbonate (pKa(HCO3^−)=10, I=0.5 M) at pH 10.0 by reaction sequence 18-20 (the species radiation yields are in parentheses): […]

Experiment [4] in a line: Pulse radiolysis: catalysis of the decay (dismutation) of O2.-, absorbance at 260 nm. Format: biochemical. The following applies: for kcat (in words): oxygenated solution; for kobs at the plateau: 10 μM O2.-, pH 7.25; for kcat at the plateau after repetitive pulsing: 20 mM formate, 2.4 mM phosphate pH 7.25. How it is done: Pulse radiolysis experiments were carried out with a Varian (Palo Alto, Calif.) 7715 linear accelerator with 5 MeV electron pulses of 1.5 μs duration. The light source of the analyzing beam was a 200 W xenon lamp. The absorption spectra were measured were at room temperature in a 2 cm Spectrosil® cell, the beam passing the cell three times, for an optical path length of 6.1 cm. The dose was 6-19.4 Gy per pulse, as determined from the absorption of the superoxide ion, using G(O2.^−)=6.1 and ε260=1940 M^−1cm^−1, in pH 7.4 O2 saturated 2.4 mM phosphate buffer, containing 20 mM formate.
OsO4 (or its product) catalyzes the decay of the superoxide ion radical. The superoxide ion radical (pKa=4.8) was formed by pulse-irradiation of oxygenated pH 7.2-7.4 buffer solutions. The solutions contained either 0.02 M formate and 2.4 mM phosphate, or 0.2 M 2-PrOH and 12 mM phosphate. In some experiment 5-10 μM diethylenetriaminepentaacetic acid (DTPA) or catalase (75 u/ml) were added. In the presence of either formate or 2-PrOH. All of the primary radicals formed by the radiation (Equation 3) are converted into O2.^− via Reactions 4-7 when formate is added, and by Reactions 4, 8-10, when 2-PrOH is added. In Equation 3 the values in parentheses are the radiation-chemical yields of the species, defined as the number of species produced per 100 eV of absorbed energy γ.

Results on 13 compounds are retold here after patent publication US20050025805A1, “Osmium compounds for reduction of adverse inflammation” (priority 2003, published 2005).

Like-named read-outs stand apart in the source and are kept apart here.

As for `CC(=O)OC[C@H]1O[C@@H]([S-])[C@H](OC(C)=O)[C@@H](OC(C)=O)[C@@H]1OC(C)=O.CCP(CC)CC.[Au+]` [2,3,4,6-tetra-O-acetyl-1-thio-β-D-glucopyranosato-S (triethylphosphine)], the “inhibition of the release of O2.- (in words)” value in experiment [1] (10 μM concentration) is “completely inhibited”.
As for `Cc1cccc[n+]1[O-]` [2-picoline N-oxide], the “k, reaction with .OH radicals” value in experiment [2] is 3e+09 M⁻¹ s⁻¹.
Turning to `Cc1ccc[n+]([O-])c1` [3-picoline N-oxide], the “k, reaction with .OH radicals” value in experiment [2] is 3e+09 M⁻¹ s⁻¹.
For the compound `Cc1cc[n+]([O-])cc1` [4-picoline N-oxide], the “k, reaction with .OH radicals” value in experiment [2] was 3e+09 M⁻¹ s⁻¹. Besides, the “shortening of the half-life of CO3.-” value in experiment [3] (2 mM, 3 μM CO3.-) was “about 50%”. Also, the “rate constant of the reaction with CO3.-” value in experiment [3] (pH 10.0) is “about 3×10^4 M^−1s^−1”.
As for `CN(C)CCCN1CCC2(C[CH2][Ge]([CH3])([CH3])[CH2]C2)C1` [(N,N-dimethylaminopropyl)-2-aza-8,8-dimethyl-8-germanospiro-(4,5)-decane], the “inhibition of the release of O2.- (in words)” value in experiment [1] (10 μM concentration) is on record as “completely inhibited”.
Consider `[Os+2].c1ccc(-c2ccccn2)nc1.c1ccc(-c2ccccn2)nc1.c1ccc(-c2ccccn2)nc1` [Os(bpy)3^2+], for which the “kcat (in words)” value in experiment [4] is recorded as “too low to be measured”.
As to `Cc1ccnc(-c2cc(C)ccn2)c1.Cc1ccnc(-c2cc(C)ccn2)c1.Cc1ccnc(-c2cc(C)ccn2)c1.[Os+2]` [Os(dimebpy)^2+], in experiment [4], the “kcat (in words)” value is given as “too low to be measured”.
For the compound `[Cl][Os]([Cl])[Cl]` [OsCl3, OsCl3.6H2O], the “kobs at the plateau” value in experiment [4] (1.65 μM OsCl3, after 40 pulses) worked out at 1700 s⁻¹; in experiment [4] (3.3 OsCl3, after 40 pulses) it was 3400 s⁻¹. In addition, in experiment [4], the “kcat at the plateau after repetitive pulsing” value was 1.1e+09 M⁻¹ s⁻¹. Also, the “effect on rate of decay of O2.- in the first pulse” value in experiment [4] (1.65 or 3.3 μM OsCl3, first pulse) is given as “only a minor increase”.
Turning to `[Cl][Os][Cl].c1cnc2c(c1)ccc1cccnc12.c1cnc2c(c1)ccc1cccnc12` [dichlorobis(phenathroline) osmium(II)], the “% inhibition of O2.- release” value in experiment [1] (10 μM concentration) is reported as 24±4%.
Consider `[O-][n+]1ccccc1` [pyridine N-oxide], for which the “k, reaction with .OH radicals” value in experiment [2] is 3e+09 M⁻¹ s⁻¹.
Consider K2OsCl6.2H2O Cl6 [OsCl6^2−], for which the “kcat at the plateau after repetitive pulsing” value in experiment [4] is 4e+08 M⁻¹ s⁻¹.
For the compound bis(bipyridyl) dichloroosmium(II), the “% inhibition of O2.- release” value in experiment [1] (10 μM concentration) is reported as 2±2%.
On to “octamminodinitrato-(μ-nitrido)-diosmium trinitrate”, for which the “% inhibition of O2.- release” value in experiment [1] (100 μM concentration) is recorded as 29±6%.
